From patent publication US6849598B1, “Therapeutic compositions comprising bactericidal/permeability-increasing (BPI) protein products” (XOMA, priority 1995, dated 2005)

Test system: P. aeruginosa (ATCC 19660)
Assay: Antibiotic susceptibility (MIC, Microscan® MIC Plus Type 2 panel) with rBPI21/P123 and EDTA
Assay type: cell-based
Parameters: key to susceptibility interpretation of MIC (superscript): R: resistant; I: intermediate; S: susceptible
Details: for effect of EDTA added to the rBPI21/P123 formulation on susceptibility of the strain to the antibiotic: summary of Table 17
Experimental: In additional experiments, a BPI protein product, rBPI21, was formulated with an anti-bacterial activity enhancing poloxamer, specifically PLURONIC P123, and with various concentrations of EDTA, and was evaluated for its effect on the antibiotic susceptibility of a Pseudomonas aeruginosa (ATCC 19660). Antibiotic susceptibility was determined using Microscan® panel plates (Dade Microscan, West Sacramento, Calif.) that allow simultaneous determination of minimum inhibitory concentrations for a number of different antibiotics.
The antimicrobial susceptibility tests performed on the Microscan® panel plates are miniaturizations of the broth dilution susceptibility test. Antimicrobial agents are serially diluted in Mueller-Hinton broth (supplemented with calcium and magnesium, or with sodium chloride for oxacillin, or with thymidine phosphorylase for trimethoprim, sulfamethoxazole and trimethoprim/ sulfamethoxazole) to concentrations bridging the range of clinical interest. One well on the 96-well Microscan® plate is a growth control well that contains dehydrated broth only. The remaining wells contain dehydrated broth and antibiotic (or broth and biochemical reagent indicator), which is rehydrated to the desired concentration by inoculation of a standardized suspension of test organism. The chromogenic biochemical agent indicators are used to identify and characterize the species of bacteria based on detection of pH changes and substrate utilization. […] Gram-negative and gram positive organisms may be tested using any of the Microscan® panel plates (Microscan®, Dade Microscan, West Sacramento, Calif.). In these experiments with P. aeruginosa, the MIC Plus Type 2 panel plates were used. The concentrations of antibiotics tested in this panel plate are shown below in Table 16. The antibiotic susceptibility standards (interpretation of an MIC as resistant, intermediate or susceptible according to Microscan®'s NCCLS-derived standards) applicable to the gram-negative organisms that may be tested in each panel plate appear below in Table 16A.
For these experiments with P. aeruginosa, the following procedure was performed: The organism was streaked onto TSA plates (Remel, Lenexa, Kans.) and incubated for 18-24 hours overnight. Well-isolated A, colonies from the plates were emulsified in 3 ml of sterile Inoculum Water d(catalog no. B1015-2, MicrosScan® system, Dade Microscan, West Sacramento, Calif.) to a final turbidity equivalent to 0.5 McFarland Barium Sulfate standard. This cell suspension was vortexed for 2 to 3 seconds and 100 μl was transferred to glass tubes containing 25 ml of Inoculum Water with Pluronic-D (catalog no. B1015-7, MicroScan® system, Dade Microscan, West Sacramento, Calif.) (hereinafter “Pluronic Inoculum Water”), or 25 ml of Pluronic Inoculum Water into which rBPI21 in 0.2% PLURONIC P123, 0.002% TWEEN 80, 5mM sodium citrate, 150 mM NaCl (“rBPI21/P123”) had been diluted to 64 μg/ml rBPI21.
The 25 ml of this inoculum containing rBPI21 was mixed by inversion and poured into a tray. The inoculum was drawn up into a manual 96-well pipetting system (RENOK^− rehydrator-inoculator system, Dade Microscan, West Sacramento, Calif.) designed for use with the Microscan® panel plates, and 110 μl of the inoculum was delivered to each well of a Microscan® MIC Plus Type 2 panel plate. When added to the wells, this inoculum achieves a final bacterial concentration of 4×10^5 to 7×10^5 CFU/ml. The panel plates were then incubated at 35° C. for 15-24 hours and read visually for cell growth.
No growth was defined as a slight whiteness in the well or a clear broth. Growth appeared as turbidity which could take the form of a white haze throughout the well, a white button in the center of the well, or a fine granule growth throughout the well. All wells were read against a black indirectly lighted background. Visual results of the biochemical reactions were read into a database for bacterial identification.

[1] = rBPI21/P123 at 64 μg/ml rBPI21, With 0% EDTA
[2] = rBPI21/P123 at 64 μg/ml rBPI21, With 0.01% EDTA
[3] = rBPI21/P123 at 64 μg/ml rBPI21, With 0.05% EDTA
[4] = rBPI21/P123 at 64 μg/ml rBPI21, With 0.1% EDTA

Compound	Minimum Inhibitory Concentration of Antibiotic (Control (No BPI21)) [µg/mL]	susceptibility interpretation of MIC (superscript) (Control (No BPI21))	Minimum Inhibitory Concentration of Antibiotic [1] [µg/mL]	susceptibility interpretation of MIC (superscript) [1]	Minimum Inhibitory Concentration of Antibiotic [2] [µg/mL]	susceptibility interpretation of MIC (superscript) [2]	Minimum Inhibitory Concentration of Antibiotic [3] [µg/mL]	susceptibility interpretation of MIC (superscript) [3]	Minimum Inhibitory Concentration of Antibiotic [4] [µg/mL]	susceptibility interpretation of MIC (superscript) [4]	effect of EDTA added to the rBPI21/P123 formulation on susceptibility of the strain to the antibiotic
Amoxicillin/K Clavulanate [Amox/K Clavulanate]	> 32	R	> 32	R	< 1	S	32	R	< 1	S	reversing resistance
O=C(O)C1=C(CSc2nnnn2CS(=O)(=O)O)CS[C@@H]2[C@H](NC(=O)[C@H](O)c3ccccc3)C(=O)N12 [Cefonicid]	> 16	R	> 16	R	< 2	S	< 2	S	< 2	S	reversing resistance
CO/N=C(\C(=O)N[C@@H]1C(=O)N2C(C(=O)O)=C(COC(C)=O)CS[C@H]12)c1csc(N)n1 [Cefotaxime]	32	I	16	I	4	S	< 2	S	< 2	S	increasing the susceptibility
C[C@@H](O)[C@H]1C(=O)N2C(C(=O)O)=C(SCCN=CN)C[C@H]12 [Imipenem]	1	S	1	S	< 0.5	S	< 0.5	S	< 0.5	S	
CCN1CCN(C(=O)N[C@@H](C(=O)N[C@@H]2C(=O)N3C(C(=O)O)=C(CSc4nnnn4C)CS[C@H]23)c2ccc(O)cc2)C(=O)C1=O [Cefoperazone]	< 4	S	< 4	S	< 4	S	< 4	S	< 4	S	
CO[C@@]1(NC(=O)C2SC(=C(C(N)=O)C(=O)O)S2)C(=O)N2C(C(=O)O)=C(CSc3nnnn3C)CS[C@@H]21 (stereo partly drawn) [Cefotetan]	> 32	R	> 32	R	< 4	S	< 4	S	< 4	S	
CC1(C)S[C@@H]2[C@H](NC(=O)C(C(=O)O)c3ccccc3)C(=O)N2[C@H]1C(=O)O (stereo partly drawn) [Carbenicillin]	32	I	< 16	S	< 16	S	< 16	S	< 16	S	
Ampicillin/Sulbactam [Amp/Sulbact]	> 32	R	> 32	R	< 1	S	16	I	16	I	reversing resistance
CC1(C)S[C@@H]2[C@H](NC(=O)[C@H](C(=O)O)c3ccsc3)C(=O)N2[C@H]1C(=O)O [Ticarcillin]	< 16	S	< 16	S	< 16	S	< 16	S	< 16	S	
C[C@H]1[C@H](NC(=O)/C(=N\OC(C)(C)C(=O)O)c2csc(N)n2)C(=O)N1S(=O)(=O)O [Aztreonam]	4	S	4	S	< 1	S	2	S	< 1	S	increasing the susceptibility
Cn1nnnc1SCC1=C(C(=O)O)N2C(=O)[C@@H](NC(=O)[C@H](O)c3ccccc3)[C@H]2SC1 [Cefamandole]	> 32	R	> 32	R	> 32	R	> 32	R	< 4	S	reversing resistance
CC1(C)S[C@@H]2[C@H](NC(=O)[C@H](NC(=O)N3CCNC3=O)c3ccccc3)C(=O)N2[C@H]1C(=O)O [Azlocillin]	< 64	S	< 64	S	< 64	S	< 64	S	< 64	S	
